In assay [1] the target is T1, progesterone receptor (Homo sapiens, UniProt P06401).
T1 sequence (P06401 1-933): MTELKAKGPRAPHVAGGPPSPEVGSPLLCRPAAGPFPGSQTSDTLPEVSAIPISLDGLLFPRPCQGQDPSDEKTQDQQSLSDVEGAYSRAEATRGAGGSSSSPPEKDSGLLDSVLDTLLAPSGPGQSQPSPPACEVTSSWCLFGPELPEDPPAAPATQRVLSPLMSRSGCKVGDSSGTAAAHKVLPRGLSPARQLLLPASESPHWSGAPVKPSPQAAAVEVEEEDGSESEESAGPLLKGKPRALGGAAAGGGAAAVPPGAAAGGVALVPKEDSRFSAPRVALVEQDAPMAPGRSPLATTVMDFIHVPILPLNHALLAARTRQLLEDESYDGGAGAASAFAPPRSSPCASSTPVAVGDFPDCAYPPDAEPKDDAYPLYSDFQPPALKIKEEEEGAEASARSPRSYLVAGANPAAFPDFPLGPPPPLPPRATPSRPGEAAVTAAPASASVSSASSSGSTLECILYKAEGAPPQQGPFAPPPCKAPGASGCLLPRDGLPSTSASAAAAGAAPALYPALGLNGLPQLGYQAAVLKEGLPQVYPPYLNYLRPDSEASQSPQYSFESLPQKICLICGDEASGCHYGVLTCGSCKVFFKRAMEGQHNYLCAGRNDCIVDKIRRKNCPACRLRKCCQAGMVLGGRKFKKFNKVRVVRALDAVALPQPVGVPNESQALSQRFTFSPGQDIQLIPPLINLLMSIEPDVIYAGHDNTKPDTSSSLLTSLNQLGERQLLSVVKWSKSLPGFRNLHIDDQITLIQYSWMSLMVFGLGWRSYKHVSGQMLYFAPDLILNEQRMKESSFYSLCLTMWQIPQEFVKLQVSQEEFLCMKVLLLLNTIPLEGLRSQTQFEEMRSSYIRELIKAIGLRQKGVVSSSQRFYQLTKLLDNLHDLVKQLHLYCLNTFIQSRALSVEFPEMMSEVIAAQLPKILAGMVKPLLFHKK
As to the kind of experiment: T47D alkaline phosphatase assay for progesterone receptor modulator (antagonist) activity. Also noted: Frozen T47D cells are thawed in a 37° C. water bath and diluted to 280,000 cells/mL in culture medium; endogenous in cells; host or cells: T47D cells. As to conditions: T47D cells, antagonist mode in the presence of 1 nM progesterone, 24 hours. The assay is classed as cell-based. On the procedure: (§1) An assay was performed to identify compounds having progesterone receptor modulator activity. This assay identifies progestins or antiprogestins by determining a compound's effect on alkaline phosphatase activity in T47D cells.
(§2) Culture medium: DMEM:F12 (1:1) (GIBCO, BRL) supplemented with 5% (v/v) charcoal stripped fetal bovine serum (not heat-inactivated), 100 U/mL penicillin, 100 μg/mL streptomycin, and 2 mM the GlutaMax® reagent (GIBCO, BRL).
(§3) Alkaline phosphatase assay buffer: • I. 0.1M Tris-HCl, pH 9.8, containing 0.2% the Triton™ X-100 reagent • II. 0.1M Tris-HCl, pH 9.8, containing 4 mM p-nitrophenyl phosphate (Sigma).
(§4) Frozen T47D cells are thawed in a 37° C. water bath and diluted to 280,000 cells/mL in culture medium. To each well in a 96-well plate (Falcon, Becton Dickinson Labware), 180 μL of diluted cell suspension is added.
Twenty μL of reference or test compounds diluted in the culture medium is then added to each well. When testing for progestin antagonist activity, reference antiprogestins or test compounds are added in the presence of 1 nM progesterone. […]
Analysis of dose-response data. […] EC50 or IC50 values are calculated from the retransformed values. […]
Progesterone and trimegestone are reference progestins and RU486 is the reference antiprogestin. All reference compounds are run in full dose response curves and the EC50 and IC50 values are calculated. […]

The target in assay [2] is T1, progesterone receptor. The description is as above. Format: cell-based. Also noted: endogenous in cells; host or cells: T47D cells. The settings on record: T47D cells; for pIC50: antagonist mode in the presence of 1 nM progesterone, 24 hours. The protocol: as §1, §2, §3, §4
Twenty μL of reference or test compounds diluted in the culture medium is then added to each well. When testing for progestin antagonist activity, reference antiprogestins or test compounds are added in the presence of 1 nM progesterone. The cells are incubated at 37° C. in a 5% CO2/humidified atmosphere for 24 hours.
For high throughput screening, one concentration of each compound will be tested at 0.3 μg/mL. Based on an average molecular weight of 300 g/mol for the compounds in the library, the concentration is approximately 1 μM. Subsequently, active compounds will be tested in dose response assays to determine EC50 and IC50.
At the end of treatment, the medium is removed from the plate. Fifty μL of assay buffer I is added to each well. The plates are shaken in a titer plate shaker for 15 minutes. Then 150 μL of assay buffer II is added to each well. Optical density measurements are taken at 5 minute intervals for 30 minutes at a test wavelength of 405 nm.
Analysis of dose-response data. For reference and test compounds, a dose response curve is generated for dose (x-axis) vs. the rate of enzyme reaction (slope) (y-axis). Square root-transformed data are used for analysis of variance and nonlinear dose response curve fitting for both agonist and antagonist modes. Huber weighting is used to down-weight the effects of outliers. EC50 or IC50 values are calculated from the retransformed values. The JMP® software (SAS Institute, Inc.) is used for both one-way analysis of variance and non-linear dose response analysis in both single dose and dose response studies.
Progesterone and trimegestone are reference progestins and RU486 is the reference antiprogestin. All reference compounds are run in full dose response curves and the EC50 and IC50 values are calculated.
In the table provided above, the IC50 values show the relative progesterone receptor antagonist activity in this assay. Lower numbers are indicative of higher potency, i.e., greater PR antagonist activity. Further, the assay has a standard deviation of about ±6.

pIC50: −log10 of the molar value.

By pIC50 is commonly meant the IC50 on a negative log10 scale, so that one unit is a factor of ten. Consider `CN(C#N)c1ccc(-c2ccc(C#N)n2C)cc1` [Example 38], for which the pIC50 in assay [1] was 7.05.

For the compound `CCS(=O)(=O)Nc1ccc(-c2ccc(C#N)n2C)c(C#N)c1` [Example 75, N-[3-cyano-4-(5-cyano-1-methyl-1H-pyrrol-2-yl)phenyl]ethanesulfonamide], the pIC50 in assay [2] is 6.91. On the same count and under the same terms, then `CCCS(=O)(=O)Nc1ccc(-c2ccc(C#N)n2C)c(C#N)c1` [Example 76, N-[3-cyano-4-(5-cyano-1-methyl-1H-pyrrol-2-yl)phenyl]propane-1-sulfonamide], with 7.06. By inhibition is commonly meant the drop in the measured response relative to a control, in per cent. Read a low inhibition as a response near the control. Regarding `Cn1c(C#N)ccc1-c1ccc(NS(C)(=O)=O)c(C#N)c1` [Example 77, N-[2-cyano-4-(5-cyano-1-methyl-1H-pyrrol-2-yl)phenyl]methanesulfonamide], in assay [2], the “Active Dose” value came out at 3000 nM. This compound gave an inhibition at 3 µM in assay [2] (at Active Dose 3000 nM) of 50%.

Regarding `Cn1c(C#N)ccc1-c1c(F)cc(NS(C)(=O)=O)cc1F` [Example 79, N-[4-(5-cyano-1-methyl-1H-pyrrol-2-yl)-3,5-difluorophenyl]-methanesulfonamide], the pIC50 in assay [2] is 7.80. Consider `CCS(=O)(=O)Nc1cc(F)c(-c2ccc(C#N)n2C)c(F)c1` [Example 80, N-[4-(5-cyano-1-methyl-1H-pyrrol-2-yl)-3,5-difluorophenyl]ethane-sulfonamide], for which, in assay [2], the pIC50 was 7.72. Regarding `CCCS(=O)(=O)Nc1cc(F)c(-c2ccc(C#N)n2C)c(F)c1` [Example 81, N-[4-(5-cyano-1-methyl-1H-pyrrol-2-yl)-3,5-difluorophenyl]propane-1-sulfonamide], the pIC50 in assay [2] was 8.21.

As to `CCCCS(=O)(=O)Nc1cc(F)c(-c2ccc(C#N)n2C)c(F)c1` [Example 82, N-[4-(5-cyano-1-methyl-1H-pyrrol-2-yl)-3,5-difluorophenyl]butane-1-sulfonamide], the pIC50 in assay [2] is 8.07.

Values taken from US20070027201A1 (Wyeth, priority 2005, published 2007).
